According to patent US8445674B2, “Heterocyclyl compounds” (Hoffmann-La Roche Inc, priority 2009, dated 2013):

Biological target: T1, human chemokine receptor 2 isoform B (Homo sapiens, UniProt P41597)
T1 construct: host or cells: CHOK1-CCR2B-A5 cells (CHO-K1)
T1 sequence (P41597 1-360 isoform P41597-2): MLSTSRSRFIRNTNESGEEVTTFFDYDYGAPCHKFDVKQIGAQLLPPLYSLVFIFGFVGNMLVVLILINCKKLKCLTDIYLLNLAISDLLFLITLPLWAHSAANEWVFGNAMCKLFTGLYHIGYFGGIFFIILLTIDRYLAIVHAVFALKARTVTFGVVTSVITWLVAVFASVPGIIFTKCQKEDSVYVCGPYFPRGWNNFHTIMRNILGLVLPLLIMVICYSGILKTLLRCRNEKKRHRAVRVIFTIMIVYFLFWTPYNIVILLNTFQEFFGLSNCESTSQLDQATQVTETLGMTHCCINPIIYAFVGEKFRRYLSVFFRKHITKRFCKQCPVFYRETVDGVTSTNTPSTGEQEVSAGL
Assay: Calcium mobilization assay (FLIPR, antagonist activity against MCP-1)
Format: cell-based
Settings: Ca mobilisation assay, CHOK1-CCR2B-A5 cells, inhibition of calcium increase induced by 20 nM MCP-1
How it was run: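 CHOK1 cells stably overexpressing human CCR2B, loaded with 4 μM Fluo-4 for 2 h at 30° C, compounds added and agonist signal read by FLIPR for 80 s. After 20-30 min at 30° C, 20 nM MCP-1 was added and fluorescence read again. IC50 is 50% inhibition of specific calcium increase (max minus basal).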

Question: CC(C)(C)C1(O)CCN(C(=O)CCN2CCN(C(=O)/C=C/c3ccc(Cl)c(Cl)c3)CCC2=O)CC1 [Example 84, 4-[3-(4-tert-Butyl-4-hydroxy-piperidin-1-yl)-3-oxo-propyl]-1-[(E)-3-(3,4-dichloro-phenyl)-acryloyl]-[1,4]diazepan-5-one] was tested. Which IC50 did it give?
Answer: 0.0479 µM

Question: CC1CCN(C(=O)CCN2CCN(C(=O)/C=C/c3ccc(Cl)c(Cl)c3)CCC2=O)CC1 [Example 85, 1-[(E)-3-(3,4-Dichloro-phenyl)-acryloyl]-4-[3-(4-methyl-piperidin-1-yl)-3-oxo-propyl]-[1,4]diazepan-5-one] was tested. Which IC50 did it give?
Answer: 1.52 µM

Question: O=C(/C=C/c1ccc(Cl)c(Cl)c1)N1CCC(=O)N(CCC(=O)N2CCC3(CCCO3)CC2)CC1 [Example 86, 1-[(E)-3-(3,4-Dichloro-phenyl)-acryloyl]-4-[3-(1-oxa-8-aza-spiro[4.5]dec-8-yl)-3-oxo-propyl]-[1,4]diazepan-5-one] was tested. Which IC50 did it give?
Answer: 0.326 µM

Question: Which IC50 does the source give for CC1(CO)CCN(C(=O)CCN2CCN(C(=O)/C=C/c3ccc(Cl)c(Cl)c3)CCC2=O)CC1 [Example 87, 1-[(E)-3-(3,4-Dichloro-phenyl)-acryloyl]-4-[3-(4-hydroxymethyl-4-methyl-piperidin-1-yl)-3-oxo-propyl]-[1,4]diazepan-5-one] here?
Answer: 0.337 µM

Question: Which IC50 does the source give for COC(=O)NC1CCN(C(=O)CCN2CCN(C(=O)/C=C/c3ccc(Cl)c(Cl)c3)CCC2=O)CC1 [Example 88, [1-(3-{4-[(E)-3-(3,4-Dichloro-phenyl)-acryloyl]-7-oxo-[1,4]diazepan-1-yl}-propionyl)-piperidin-4-yl]-carbamic acid methyl ester] here?
Answer: 1.75 µM

Question: With O=C1NC(=O)C2(CCN(C(=O)CCN3CCN(C(=O)/C=C/c4ccc(Cl)c(Cl)c4)CCC3=O)CC2)N1 [Example 89, 8-(3-{4-[(E)-3-(3,4-Dichloro-phenyl)-acryloyl]-7-oxo-[1,4]diazepan-1-yl}-propionyl)-1,3,8-triaza-spiro[4.5]decane-2,4-dione] as the compound, how does the IC50 read?
Answer: 4 µM

Question: O=C1NCC2(CCN(C(=O)CCN3CCN(C(=O)/C=C/c4ccc(Cl)c(Cl)c4)CCC3=O)CC2)O1 [Example 90, 8-(3-{4-[(E)-3-(3,4-Dichloro-phenyl)-acryloyl]-7-oxo-[1,4]diazepan-1-yl}-propionyl)-1-oxa-3,8-diaza-spiro[4.5]decan-2-one] was tested. Which IC50 did it give?
Answer: 0.184 µM

Question: With O=C(/C=C/c1ccc(Cl)c(Cl)c1)N1CCC(=O)N(CCC(=O)N2CCC(c3cc[nH]n3)CC2)CC1 [Example 91, 1-[(E)-3-(3,4-Dichloro-phenyl)-acryloyl]-4-{3-oxo-3-[4-(1H-pyrazol-3-yl)-piperidin-1-yl]-propyl}-[1,4]diazepan-5-one] as the compound, how does the IC50 read?
Answer: 0.146 µM

Question: How did the IC50 turn out when O=C(/C=C/c1ccc(Cl)c(Cl)c1)N1CCC(=O)N(CCC(=O)N2CCC(N3CCNC3=O)CC2)CC1 [Example 92, 1-[(E)-3-(3,4-Dichloro-phenyl)-acryloyl]-4-{3-oxo-3-[4-(2-oxo-imidazolidin-1-yl)-piperidin-1-yl]-propyl}-[1,4]diazepan-5-one] was run?
Answer: 0.952 µM

Question: Which IC50 does the source give for O=C1CC2(CCN(C(=O)CCN3CCN(C(=O)/C=C/c4ccc(Cl)c(Cl)c4)CCC3=O)CC2)C(=O)N1 [Example 93, 8-(3-{4-[(E)-3-(3,4-Dichloro-phenyl)-acryloyl]-7-oxo-[1,4]diazepan-1-yl}-propionyl)-2,8-diaza-spiro[4.5]decane-1,3-dione] here?
Answer: 1.16 µM

Question: With NC(=O)C1CCN(C(=O)CCN2CCN(C(=O)/C=C/c3ccc(Cl)c(Cl)c3)CCC2=O)CC1 [Example 94, 1-(3-{4-[(E)-3-(3,4-Dichloro-phenyl)-acryloyl]-7-oxo-[1,4]diazepan-1-yl}-propionyl)-piperidine-4-carboxylic acid amide] as the compound, how does the IC50 read?
Answer: 1.8 µM

Question: Which IC50 does the source give for O=C(/C=C/c1ccc(Cl)c(Cl)c1)N1CCC(=O)N(CC(=O)N2CCCCC2)CC1 [Example 95, 1-[(E)-3-(3,4-Dichloro-phenyl)-acryloyl]-4-(2-oxo-2-piperidin-1-yl-ethyl)-[1,4]diazepan-5-one] here?
Answer: 0.15 µM

Question: With O=C(/C=C/c1ccc(Cl)c(Cl)c1)N1CCC(=O)N(CC(=O)N2CCC3(CCCC3)CC2)CC1 [Example 96, 4-[2-(8-Aza-spiro[4.5]dec-8-yl)-2-oxo-ethyl]-1-[(E)-3-(3,4-dichloro-phenyl)-acryloyl]-[1,4]diazepan-5-one] as the compound, how does the IC50 read?
Answer: 3.21 µM

Question: Which IC50 does the source give for O=C(/C=C/c1ccc(Cl)c(Cl)c1)N1CCC(=O)N(CC(=O)N2CCC3(CCCO3)CC2)CC1 [Example 98, 1-[(E)-3-(3,4-Dichloro-phenyl)-acryloyl]-4-[2-(1-oxa-8-aza-spiro[4.5]dec-8-yl)-2-oxo-ethyl]-[1,4]diazepan-5-one] here?
Answer: 1.7 µM

Question: Which IC50 does the source give for CC1(CO)CCN(C(=O)CN2CCN(C(=O)/C=C/c3ccc(Cl)c(Cl)c3)CCC2=O)CC1 [Example 99, 1-[(E)-3-(3,4-Dichloro-phenyl)-acryloyl]-4-[2-(4-hydroxymethyl-4-methyl-piperidin-1-yl)-2-oxo-ethyl]-[1,4]diazepan-5-one] here?
Answer: 4.96 µM

Question: How did the IC50 turn out when C[C@@H]1CN(CCC(=O)N2CCCCC2)C(=O)CCN1C(=O)/C=C/c1cccc(Cl)c1 [Example 101, (R)-1-[(E)-3-(3-Chloro-phenyl)-acryloyl]-2-methyl-4-(3-oxo-3-piperidin-1-yl-propyl)-[1,4]diazepan-5-one] was run?
Answer: 2.48 µM

Question: For C[C@@H]1CN(CCC(=O)N2CCC(C)(O)CC2)C(=O)CCN1C(=O)/C=C/c1cccc(Cl)c1 [Example 102, (R)-1-[(E)-3-(3-Chloro-phenyl)-acryloyl]-4-[3-(4-hydroxy-4-methyl-piperidin-1-yl)-3-oxo-propyl]-2-methyl-[1,4]diazepan-5-one], which IC50 is on record?
Answer: 0.152 µM

Question: Which IC50 does the source give for C[C@H]1C[C@H](O)CN(C(=O)CCN2C[C@@H](C)N(C(=O)/C=C/c3cccc(Cl)c3)CCC2=O)C1 [Example 103, (R)-1-[(E)-3-(3-Chloro-phenyl)-acryloyl]-4-[3-((3S,5S)-3-hydroxy-5-methyl-piperidin-1-yl)-3-oxo-propyl]-2-methyl-[1,4]diazepan-5-one] here?
Answer: 1.29 µM

Question: How did the IC50 turn out when C[C@@H]1CN(CCC(=O)N2CCC3(CC3)[C@H](O)C2)C(=O)CCN1C(=O)/C=C/c1cccc(Cl)c1 [Example 104, (R)-1-[(E)-3-(3-Chloro-phenyl)-acryloyl]-4-[3-((S)-4-hydroxy-6-aza-spiro[2.5]oct-6-yl)-3-oxo-propyl]-2-methyl-[1,4]diazepan-5-one] was run?
Answer: 0.1 µM

Question: For C[C@H]1C(=O)N(CCCC(=O)N2CCC(C)(O)CC2)CCN1C(=O)Nc1cccc(Cl)c1 [Example 105, (S)-4-[4-(4-Hydroxy-4-methyl-piperidin-1-yl)-4-oxo-butyl]-2-methyl-3-oxo-piperazine-1-carboxylic acid (3-chloro-phenyl)-amide], which IC50 is on record?
Answer: 3.41 µM

Question: Which IC50 does the source give for C[C@H]1C(=O)N(CCCC(=O)N2CCC(C(F)(F)F)CC2)CCN1C(=O)Nc1cccc(Cl)c1 [Example 106, (S)-2-Methyl-3-oxo-4-[4-oxo-4-(4-trifluoromethyl-piperidin-1-yl)-butyl]-piperazine-1-carboxylic acid (3-chloro-phenyl)-amide] here?
Answer: 3.13 µM

Question: Which IC50 does the source give for C[C@H]1C(=O)N(CCCC(=O)N2CCC3(CC2)CNC(=O)O3)CCN1C(=O)Nc1cccc(Cl)c1 [Example 107, (S)-2-Methyl-3-oxo-4-[4-oxo-4-(2-oxo-1-oxa-3,8-diaza-spiro[4.5]dec-8-yl)-butyl]-piperazine-1-carboxylic acid (3-chloro-phenyl)-amide] here?
Answer: 4.87 µM

Question: Which IC50 does the source give for C[C@H]1C(=O)N(CCCC(=O)N2CCC3(CCCO3)CC2)CCN1C(=O)Nc1cccc(Cl)c1 [Example 108, (S)-2-Methyl-4-[4-(1-oxa-8-aza-spiro[4.5]dec-8-yl)-4-oxo-butyl]-3-oxo-piperazine-1-carboxylic acid (3-chloro-phenyl)-amide] here?
Answer: 4.07 µM

Question: For C[C@H]1C(=O)N(CCCC(=O)N2CCC(CO)CC2)CCN1C(=O)Nc1cccc(Cl)c1 [Example 109, (S)-4-[4-(4-Hydroxymethyl-piperidin-1-yl)-4-oxo-butyl]-2-methyl-3-oxo-piperazine-1-carboxylic acid (3-chloro-phenyl)-amide], which IC50 is on record?
Answer: 4.65 µM

Question: Which IC50 does the source give for C[C@H]1C(=O)N(CCCC(=O)N2CCS(=O)(=O)CC2)CCN1C(=O)Nc1cccc(Cl)c1 [Example 110, (S)-4-[4-(1,1-Dioxo-1 lambda*6*-thiomorpholin-4-yl)-4-oxo-butyl]-2-methyl-3-oxo-piperazine-1-carboxylic acid (3-chloro-phenyl)-amide] here?
Answer: 1.34 µM

Question: C[C@H]1CCN(C(=O)CCCN2CCN(C(=O)Nc3cccc(Cl)c3)[C@@H](C)C2=O)C[C@H]1O [Example 111, (S)-4-[4-((3S,4S)-3-Hydroxy-4-methyl-piperidin-1-yl)-4-oxo-butyl]-2-methyl-3-oxo-piperazine-1-carboxylic acid (3-chloro-phenyl)-amide] was tested. Which IC50 did it give?
Answer: 0.893 µM

Question: How did the IC50 turn out when C[C@H]1C[C@H](O)CN(C(=O)CCCN2CCN(C(=O)Nc3cccc(Cl)c3)[C@@H](C)C2=O)C1 [Example 113, (S)-4-[4-((3S,5S)-3-Hydroxy-5-methyl-piperidin-1-yl)-4-oxo-butyl]-2-methyl-3-oxo-piperazine-1-carboxylic acid (3-chloro-phenyl)-amide] was run?
Answer: 1.42 µM

Question: Which IC50 does the source give for O=C1CCN(C(=O)Nc2cccc(Cl)c2)CCN1CCCC(=O)N1CCC2(CC2)[C@H](O)C1 [Example 116, 4-[4-((S)-4-Hydroxy-6-aza-spiro[2.5]oct-6-yl)-4-oxo-butyl]-5-oxo-[1,4]diazepane-1-carboxylic acid (3-chloro-phenyl)-amide] here?
Answer: 1.29 µM

Question: For O=C1CCN(C(=O)Nc2ccc(Cl)c(Cl)c2)CCN1CCCC(=O)N1CCC2(CC2)[C@H](O)C1 [Example 117, 4-[4-((S)-4-Hydroxy-6-aza-spiro[2.5]oct-6-yl)-4-oxo-butyl]-5-oxo-[1,4]diazepane-1-carboxylic acid (3,4-dichloro-phenyl)-amide], which IC50 is on record?
Answer: 0.0202 µM
